Data set [1] is described as follows: Drug metabolism in human hepatocytes treated with N-((1R,2S)-1-(3-chloro-4-cyanophenoxy)-1-(6-methoxypyridin-3-yl)propan-2-yl)-2,2-difluoropropanamide. It is filed as ADME, cell-based, Hepatocyte.
A short description of data set [2]: Drug metabolism in rat hepatocytes treated with N-((1R,2S)-1-(3-chloro-4-cyanophenoxy)-1-(6-methoxypyridin-3-yl)propan-2-yl)-2,2-difluoropropanamide. It is filed as ADME, cell-based, Hepatocyte.
In data set [3] the target is T1, Glucocorticoid receptor (Homo sapiens, UniProt P04150).
T1 sequence (P04150 whole entry): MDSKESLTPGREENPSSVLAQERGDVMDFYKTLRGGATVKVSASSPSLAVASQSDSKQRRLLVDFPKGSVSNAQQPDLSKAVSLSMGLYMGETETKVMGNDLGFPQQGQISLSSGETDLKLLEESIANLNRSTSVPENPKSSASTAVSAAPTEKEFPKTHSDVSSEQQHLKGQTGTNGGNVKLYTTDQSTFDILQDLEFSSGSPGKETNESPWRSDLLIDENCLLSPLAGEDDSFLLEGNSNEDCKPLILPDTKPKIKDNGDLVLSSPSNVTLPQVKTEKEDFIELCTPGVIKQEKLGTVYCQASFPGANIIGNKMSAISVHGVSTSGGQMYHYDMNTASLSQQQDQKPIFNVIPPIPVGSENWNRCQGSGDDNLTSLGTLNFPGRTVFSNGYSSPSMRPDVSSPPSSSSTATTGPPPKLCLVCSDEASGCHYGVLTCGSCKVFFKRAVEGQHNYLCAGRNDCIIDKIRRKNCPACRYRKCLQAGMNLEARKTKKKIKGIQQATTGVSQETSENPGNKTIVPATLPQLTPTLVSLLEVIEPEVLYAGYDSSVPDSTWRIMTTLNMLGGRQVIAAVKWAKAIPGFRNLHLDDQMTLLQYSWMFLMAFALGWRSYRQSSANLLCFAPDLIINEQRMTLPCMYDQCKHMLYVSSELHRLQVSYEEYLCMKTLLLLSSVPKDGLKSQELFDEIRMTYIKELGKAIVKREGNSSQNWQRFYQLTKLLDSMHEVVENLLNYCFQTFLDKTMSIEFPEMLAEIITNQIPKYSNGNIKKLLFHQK
As to conditions: blood; call rule not given here.

Data set [4] has as its target T1, Glucocorticoid receptor.
Description: Transactivation activity at glucocorticoid receptor (unknown origin) expressed in human ChaGoK1 cells incubated for 24 hrs by beta-galactosidase reporter gene assay
Data set [5] can be described thus: Aqueous solubility of the compound. The class given is physicochemical. The settings on record: aqueous; read-out: solubility.
The test system of data set [6] is Hepatocyte. Kind of data set: Stability in rat hepatocytes. The class given is ADME, cell-based.
The target in data set [7] is T2, Glucocorticoid receptor (Homo sapiens) (UniProt P04150).
T2 sequence (whole entry): T1 sequence (P04150 whole entry)
Description: Transrepression of GR in cryopreserved human fetal osteoblasts assessed as inhibition of OPG mRNA expression after 4 hrs by RT-qPCR analysis

For data set [8], the target named is T1, Glucocorticoid receptor. This is another data set of the same source.
Description: Transrepression activity at glucocorticoid receptor (unknown origin) expressed in human ChaGoK1 cells assessed as inhibition of PMA-stimulated gene expression incubated for 24 hrs by beta-galactosidase reporter gene assay
The target of data set [9] is T1, Glucocorticoid receptor. This is another data set of the same source.
Description: (§1) Transrepression of GR in human whole blood assessed as inhibition of LPS-induced TNF-alpha release preincubated for 45 mins followed by LPS addition after 18 hrs by AlphaLISA method
Data set [10] deals with T1, Glucocorticoid receptor. Kind of data set: Displacement of fluormone RED from human full length glucocorticoid receptor after 4 hrs by fluorescence polarization assay. For orientation: Fluorescence polarisation rises when a labelled molecule tumbles more slowly, as on binding a larger partner.
Data set [11] addresses T1, Glucocorticoid receptor. Description: Antagonist activity at glucocorticoid receptor (unknown origin) expressed in human ChaGoK1 cells assessed as inhibition of dexamethasone induced transactivation incubated for 24 hrs by beta-galactosidase reporter gene assay. It is filed as cell-based. In general terms: A reporter such as luciferase makes a cellular process visible.

For data set [12], the target named is T2, Glucocorticoid receptor (Homo sapiens). The source holds these as a separate data set.
Description: as §1
The target in data set [13] is T1, Glucocorticoid receptor. Kind of data set: Transactivation of GR in cryopreserved human primary hepatocytes assessed as upregulation of TAT mRNA expression level up to 1 uM after 18 hrs by RT-qPCR analysis. For orientation: Quantitative PCR measures a nucleic acid by following its amplification.
Data set [14] in a line: Clearance in rat. The class given is ADME, organism-based. As to conditions: in vivo.
The nature of data set [15]: Intrinsic clearance in rat hepatocytes assessed per million cells. It is filed as ADME, cell-based, Hepatocyte. The settings on record: read-out: CLH.
The nature of data set [16]: Terminal half life in Han-Wistar rat at 3.5 mg/kg, po. The class given is ADME, organism-based. As to conditions: in vivo, read-out: beta t1/2 (converted).
Data set [17] concerns the target Estrogen receptor beta (Homo sapiens, UniProt Q92731). Description: Binding affinity to human ERbeta expressed in Sf9 cells by fluoligand binding-based fluorescence polarization method.
Data set [18] concerns the target T3, Estrogen receptor (Homo sapiens, UniProt P03372).
T3 sequence (P03372 whole entry): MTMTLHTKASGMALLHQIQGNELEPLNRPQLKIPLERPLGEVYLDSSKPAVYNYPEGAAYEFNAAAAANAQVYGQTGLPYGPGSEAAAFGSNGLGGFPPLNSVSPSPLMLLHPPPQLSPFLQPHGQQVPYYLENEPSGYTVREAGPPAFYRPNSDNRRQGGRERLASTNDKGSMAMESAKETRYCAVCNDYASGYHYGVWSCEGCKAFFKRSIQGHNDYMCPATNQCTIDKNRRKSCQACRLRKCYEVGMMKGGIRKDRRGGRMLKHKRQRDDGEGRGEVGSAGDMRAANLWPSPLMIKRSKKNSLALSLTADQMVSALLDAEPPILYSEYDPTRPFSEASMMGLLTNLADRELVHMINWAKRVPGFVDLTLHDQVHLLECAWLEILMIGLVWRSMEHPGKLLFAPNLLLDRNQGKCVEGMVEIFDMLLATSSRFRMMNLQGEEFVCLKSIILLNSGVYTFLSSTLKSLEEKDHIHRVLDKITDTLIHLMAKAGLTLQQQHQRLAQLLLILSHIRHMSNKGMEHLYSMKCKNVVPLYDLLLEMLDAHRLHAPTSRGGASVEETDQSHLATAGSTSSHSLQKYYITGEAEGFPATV
Description: Binding affinity to human ERalpha expressed in Sf9 cells by fluoligand binding-based fluorescence polarization method.

The test system of data set [19] is Rattus norvegicus. Description: Dose normalized Cmax in Han-Wistar rat at 3.5 mg/kg, po. It is filed as ADME, organism-based. The settings on record: in vivo.
Data set [20] addresses T1, Glucocorticoid receptor. As to conditions: hepatocytes, 18 h.
Description: Transactivation of GR in cryopreserved human primary hepatocytes assessed as upregulation of TAT mRNA expression level after 18 hrs by RT-qPCR analysis
The target of data set [21] is T4, Mineralocorticoid receptor (Homo sapiens, UniProt P08235).
T4 sequence (P08235 whole entry): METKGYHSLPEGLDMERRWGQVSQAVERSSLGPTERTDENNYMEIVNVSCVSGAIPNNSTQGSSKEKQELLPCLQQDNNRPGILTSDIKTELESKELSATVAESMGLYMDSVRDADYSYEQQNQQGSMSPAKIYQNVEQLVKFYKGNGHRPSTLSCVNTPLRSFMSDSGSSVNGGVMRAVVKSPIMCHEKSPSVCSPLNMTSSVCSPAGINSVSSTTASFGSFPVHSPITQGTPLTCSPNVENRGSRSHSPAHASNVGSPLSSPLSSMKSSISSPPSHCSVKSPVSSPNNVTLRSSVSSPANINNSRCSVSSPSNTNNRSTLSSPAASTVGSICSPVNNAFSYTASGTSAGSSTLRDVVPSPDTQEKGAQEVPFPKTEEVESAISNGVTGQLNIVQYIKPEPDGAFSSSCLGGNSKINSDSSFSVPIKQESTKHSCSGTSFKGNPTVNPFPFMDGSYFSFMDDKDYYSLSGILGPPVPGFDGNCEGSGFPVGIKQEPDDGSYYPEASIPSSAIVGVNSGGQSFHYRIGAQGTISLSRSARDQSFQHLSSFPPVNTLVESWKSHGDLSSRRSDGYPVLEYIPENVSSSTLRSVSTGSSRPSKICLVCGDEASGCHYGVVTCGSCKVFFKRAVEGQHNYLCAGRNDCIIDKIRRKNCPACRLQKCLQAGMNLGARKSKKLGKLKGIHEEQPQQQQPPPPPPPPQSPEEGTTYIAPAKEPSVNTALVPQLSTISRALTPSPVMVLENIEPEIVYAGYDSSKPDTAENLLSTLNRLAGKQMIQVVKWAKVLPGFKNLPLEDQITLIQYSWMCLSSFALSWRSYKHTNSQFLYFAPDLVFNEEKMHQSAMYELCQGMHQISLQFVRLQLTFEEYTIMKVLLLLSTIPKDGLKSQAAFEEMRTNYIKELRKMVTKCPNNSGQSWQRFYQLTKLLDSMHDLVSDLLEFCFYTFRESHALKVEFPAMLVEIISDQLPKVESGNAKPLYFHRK
Description: Displacement of [3H]-aldosterone from human mineralocorticoid receptor LBD (729 to 984 residues) after 1 hr by scintillation proximity assay.

For data set [22], the system named is Rattus norvegicus. Description: Dose normalized AUC (0 to infinity) in Han-Wistar rat at 3.5 mg/kg, po. It is filed as ADME, organism-based. As to conditions: in vivo.
The test system of data set [23] is Rattus norvegicus. Kind of data set: Antiinflammatory activity in streptococcal cell wall reactivation Lewis rat model assessed as reduction of joint swelling at 5 mg/kg administered once daily for 8 days by oral gavage starting 1 day prior to streptococcal cell wall challenge measured during 6 days post challenge relative to control. It is filed as functional. Also on record: scale not given: the % may be the effect or the level left.

Data set [24] can be described thus: Tmax in Han-Wistar rat at 3.5 mg/kg, po. It is filed as ADME, organism-based. The settings on record: in vivo.
A short description of data set [25]: Terminal half life in Han-Wistar rat at 0.9 mg/kg, iv. The class given is ADME, organism-based. As to conditions: in vivo, read-out: beta t1/2 (converted).
Data set [26] is described as follows: Volume of distribution at steady state in Han-Wistar rat at 0.9 mg/kg, iv. The settings on record: in vivo, read-out: Vdss. It is filed as ADME, organism-based.
Data set [27] deals with Rattus norvegicus. Kind of data set: Antiinflammatory activity in streptococcal cell wall reactivation Lewis rat model assessed as reduction of joint swelling at 20 mg/kg administered once daily for 8 days by oral gavage starting 1 day prior to streptococcal cell wall challenge measured during 6 days post challenge relative to control. It is filed as functional. Also on record: scale not given: the % may be the effect or the level left.

The nature of data set [28]: Clearance in Han-Wistar rat at 0.9 mg/kg, iv. The class given is ADME, organism-based. The settings on record: in vivo.
Data set [29] in a line: Drug metabolism in rat hepatocytes assessed as N-((1R,2S)-1-(3-chloro-4-cyanophenoxy)-1-(6-hydroxypyridin-3-yl)propan-2-yl)-2,2-difluoropropanamide formation. The class given is ADME, cell-based, Hepatocyte.
Data set [30] is described as follows: Drug metabolism in human hepatocytes assessed as N-((1R,2S)-1-(3-chloro-4-cyanophenoxy)-1-(6-hydroxypyridin-3-yl)propan-2-yl)-2,2-difluoropropanamide formation. It is filed as ADME, cell-based, Hepatocyte.

pEC50, pIC50: −log10 of the molar value. ≈ marks a conversion by molar mass, not a printed value.

Sequence of Estrogen receptor beta (Q92731 whole entry): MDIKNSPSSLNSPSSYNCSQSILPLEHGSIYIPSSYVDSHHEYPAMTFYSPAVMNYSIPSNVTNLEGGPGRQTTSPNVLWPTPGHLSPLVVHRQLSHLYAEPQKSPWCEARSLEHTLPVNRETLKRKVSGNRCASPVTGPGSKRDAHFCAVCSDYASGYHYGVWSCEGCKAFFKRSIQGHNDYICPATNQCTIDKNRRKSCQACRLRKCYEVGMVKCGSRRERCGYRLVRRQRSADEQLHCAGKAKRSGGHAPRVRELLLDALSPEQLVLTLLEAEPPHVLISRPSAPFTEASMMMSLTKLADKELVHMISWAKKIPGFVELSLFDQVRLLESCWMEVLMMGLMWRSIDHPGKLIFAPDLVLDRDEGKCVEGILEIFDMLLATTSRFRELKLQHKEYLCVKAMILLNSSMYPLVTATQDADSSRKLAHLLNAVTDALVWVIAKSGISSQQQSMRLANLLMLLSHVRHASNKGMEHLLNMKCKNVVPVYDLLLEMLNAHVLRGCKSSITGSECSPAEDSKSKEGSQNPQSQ

`C[C@H](NC(=O)C(C)(F)F)[C@H](Oc1ccc(C#N)c(Cl)c1)c1ccc(O)nc1`: the Drug metabolism result in [1] and in data set [2] was “Metabolite_Detected” in each case.
As to `Cc1nnc(C(=O)N[C@@H](C(C)O)[C@H](Oc2ccc3c(cnn3-c3ccc(F)cc3)c2)c2cc(F)cc(F)c2)o1` (single isomer, unassigned), in [3], the TI worked out at 0.076. Further, the negative logarithm of the EC50 (pEC50) in data set [4] was 8.46. The solubility in data set [5] is 0.9 µM (≈ 0.484 µg/mL). The Stability result in [6] is listed as “Stable”. Also, the fIC20 in data set [7] was 0.04 nM. Moreover, the pIC50 is 8.80 in data set [8], 6.74 in [9], 7.80 in data set [10] and 6.57 in [11]. Further, in data set [12], the fIC30 is 0.53 nM. Besides, the Activity entry in [13] was “Not Active”.
The compound `COc1ccc([C@@H](Oc2ccc(C#N)cc2Cl)[C@H](C)NC(=O)C(C)(F)F)cn1` gave a clearance in [14] of 22 mL/min/kg. The pEC50 in [4] is 7.37. Moreover, the hepatocyte CLint in data set [15] was 93 µL/min/1e6 cells. Also, the solubility in data set [5] came out at 85 µM (≈ 34.8 µg/mL). In addition, the pIC50 in data set [8] was 7.80; in data set [10], 8.15.
Consider `C[C@H](NC(=O)C(C)(F)F)[C@H](Oc1ccc(C#N)cc1Cl)c1cnc(C2CC2)nc1`, for which, in [14], the clearance worked out at 7.3 mL/min/kg. In addition, the negative-log EC50 (pEC50) in [4] was 7.68. Besides, the hepatocyte CLint in data set [15] is 3.4 µL/min/1e6 cells. The solubility in [5] turned out to be 430 µM (≈ 181 µg/mL). Further, the pIC50 in [8] is 8.11; in [10], > 8.39.
As for `C[C@]12C=CC(=O)C=C1CC[C@@H]1[C@@H]2[C@@H](O)C[C@@]2(C)[C@H]1CC[C@]2(O)C(=O)CO` [PREDNISOLONE], the half-life was 150 min in [16] and 24 min in data set [25]. Further, the negative logarithm of the IC50 (pIC50) was < 4.00 in data set [17], < 4.00 in data set [18] and 7.96 in data set [21]. Further, the Cmax/dose in data set [19] was found to be 100 nM. In data set [20], this compound returned a fEC50 of 24 nM. In [5], the solubility is 310 µM (≈ 112 µg/mL). Moreover, in data set [7], the fIC20 is 0.88 nM. In addition, in [22], the AUC/dose came out at 0.094 µM·h. Besides, the results for the Activity in data set [23] and in data set [27] were 59% and 73%, respectively. The time to peak (Tmax) in data set [24] was found to be 16.8 min. Besides, the Vd in [26] amounted to 1.2 L/kg. The compound also showed a clearance in data set [28] of 90 mL/min/kg.
Turning to `COc1ccc([C@@H](Oc2ccc(C#N)c(Cl)c2)[C@H](C)NC(=O)C(C)(F)F)cn1`, in [4], the pEC50 is 7.48. Further, in [5], the solubility came to 100 µM (≈ 41 µg/mL). The Drug metabolism entry in data set [29] and in data set [30] was “Metabolite_Detected” in each case. The pIC50 was 8.03 in data set [8] and > 8.40 in [10].

A word on the pEC50: it is −log10 of the EC50, conventionally taken in molar units. The solubility is the concentration that dissolves in the medium under given conditions. What is called pIC50 is the negative decadic logarithm of the IC50, by convention in mol/L. As a reminder, the clearance is the volume of plasma or blood freed of the substance per unit of time. As usually defined, the Tmax is the time at which the peak concentration occurs.

For the origin of these results see ChEMBL document CHEMBL4190372, “Discovery of a Novel Oral Glucocorticoid Receptor Modulator (AZD9567) with Improved Side Effect Profile” (J Med Chem, 2018).
